In patent US9101133B2, “Phenyl-substituted bicyclooctane-1,3-dione-derivatives” (BAYER INTELLECTUAL PROPERTY GMBH, priority 2010, dated 2015):

Key:
Test in all cases: Herbicidal post-emergence action
Type in all cases: in vivo
AVEFA = conditions: 100 g/ha, visual assessment after about three weeks, 100% = plants have died
POAAN = conditions: 100 g/ha, visual assessment after about three weeks, 100% = plants have died
Method: (§1) 2. Herbicidal Post-Emergence Action
(§2) • Seeds of monocotylidonous and dicotylidonous weed and crop plants are placed in sandy loam in wood fibre pots, covered with soil and cultivated in a greenhouse under good growth conditions. Two to three weeks after sowing, the test plants are treated at the one-leaf stage. The test compounds, formulated as wettable powders (WP), are then with a water application rate of 600 l/ha (converted), with 0.2% of wetting agent added, sprayed onto the green parts of the plants in different amounts. After the test plants have been kept in the greenhouse under optimum growth conditions for about three weeks, the effect of the preparations is assessed visually in comparison to untreated controls (herbicidal effect in percent: 100% effect=the plants have died, 0% effect=like control plants). […]

PHAMI = conditions: 100 g/ha, visual assessment after about three weeks, 100% = plants have died
Method: as §1, §2

APESV = conditions: 100 g/ha, visual assessment after about three weeks, 100% = plants have died
Method: as §1, §2

SETVI = conditions: 504 h, visual assessment after about three weeks, 100% = plants have died, read-out: herbicidal effect in percent, SETVI

CCOC(=O)OC1=C(c2c(CC)cc(C)cc2CC)C(=O)C2CC(C(OC)OC)CC12 (centres unmarked) [I-c-1, 2-(2,6-Diethyl-4-methylphenyl)-5-(dimethoxymethyl)-3-oxo-3,3a,4,5,6,6a-hexahydropentalen-1-yl ethyl carbonate]
herbicidal effect in percent, AVEFA (AVEFA): 80% | herbicidal effect in percent, POAAN (POAAN): 85% | herbicidal effect in percent, PHAMI (PHAMI): 99% | herbicidal effect in percent, APESV (APESV): 100% | pest or weed control at 100 g/ha (SETVI): 97%
